One series has as its system HepG2-CYP3A4 cells. Put plainly: Docetaxel combination assay (MTT), HepG2-CYP3A4. The format is cell-based, human. The conditions noted are these: 1 µM docetaxel. The procedure: (§1) MTT proliferation assay was performed as described previously.
Cell viability was measured after a 48 h incubation using the MTT method as described above. […] Sensitization effects of < 0%, 0%, and >0% indicate antagonism, additivity, and synergism, respectively.

The next series has as its target T1, CYP2C19 (Homo sapiens, UniProt P33261).
T1 construct: purchased Thermo Fisher Scientific; host or cells: insect microsomal fractions
In words: Vivid CYP screening kit, recombinant CYP2C19. The format is biochemical. Particulars: recombinant enzyme, 15 min incubation, absolute IC50; read-out: CYP2C19 inhibition IC50. The procedure: (§2) CYP inhibitory assay was performed as described previously. Experiments were performed with commercial Vivid CYP screening kits containing insect microsomal fractions enriched with a specific human CYP isoform, human CYP reductase, and in some cases, human cytochrome b5. The potential inhibitory activity of ensartinib toward CYP1A2, CYP2B6, CYP2C8, CYP2C9, CYP2C19, CYP2D6, CYP3A4, and CYP3A5 (i.e., all CYP isoforms that drug regulatory authorities recommend for testing of inhibition by new molecular entities) was then examined. Experiments were performed using a kinetic mode in black 96-well plates according to the manufacturer´s instructions. Briefly, 5-point serial dilutions of ensartinib or the model inhibitor recommended by the manufacturer in buffer were transferred into the wells, then a master mix consisting of a CYP isoenzyme with an NADPH regeneration system in buffer was added. After a 10 min pre-incubation, the reaction was initiated by adding a mixture of NADP^+ and the appropriate Vivid substrate, after which fluorescence was measured at 1 min intervals for 60 min using an Infinite M200 Pro microplate reader (Tecan, Männedorf, Switzerland). The enzyme concentration and incubation interval used for data evaluation (15 min) placed the systems within the linear regions of the appropriate reaction velocity curves. […]

Another series deals with T2, ABCC1 (Homo sapiens, UniProt P33527).
T2 construct: expressed in transfected cells; host or cells: MDCKII-ABCC1 (from Dr. Alfred Schinkel, The Netherlands Cancer Institute)
Put plainly: calcein AM accumulation assay in MDCKII-ABCC1 cells. The format is cell-based. The conditions noted are these: read-out: IC50, inhibition of ABCC1-mediated calcein AM efflux. The procedure:
(§3) Cellular accumulation assay with hoechst 33342 and calcein AM was performed as described previously. Briefly, MDCKII-par, MDCKII-ABCB1, MDCKII-ABCG2, and MDCKII-ABCC1 cells were seeded at densities of 5.0 × 10^4, 5.0 × 10^4, 5.5 × 10^4, and 6.0 × 10^4 cells/well, respectively, on a transparent 96-well plate and grown to full confluence for 24 h under standard conditions. The cells were then washed twice with 1 × PBS, after which was added either a dilution of ensartinib in Opti-MEM (1, 5, 10, 25, or 50 µM) or a specific inhibitor to act as a positive control (1 µM LY335979, 1 µM Ko143, or 25 µM MK-571 for ABCB1, ABCG2, or ABCC1, respectively). Cells were pre-incubated for 10 min, then 8 µM hoechst 33342 (a model substrate for ABCB1 and ABCG2) or 2 µM calcein AM (ABCC1 substrate) diluted in Opti-MEM was quickly added to all wells other than those containing blank samples. The intracellular levels of the substrates were then determined at 1 min intervals for 30 min using a microplate reader (Infinite M200 Pro, Tecan, Männedorf, Switzerland). Fluorescence was monitored in bottom mode using excitation/emission wavelengths of 350/465 and 485/535 nm for hoechst 33342 and calcein AM, respectively.

In a further series the target is T3, CYP2C9 (Homo sapiens, UniProt P11712).
T3 construct: purchased Thermo Fisher Scientific; host or cells: insect microsomal fractions
Put plainly: Vivid CYP screening kit, recombinant CYP2C9. Format: biochemical. The conditions noted are these: recombinant enzyme, 15 min incubation, absolute IC50; read-out: CYP2C9 inhibition IC50. The procedure:
as §2

For a further series, the target named is T4, ABCG2 (Homo sapiens, UniProt Q9UNQ0).
T4 construct: expressed in transfected cells; host or cells: MDCKII-ABCG2 (from Dr. Alfred Schinkel, The Netherlands Cancer Institute)
T4 sequence (Q9UNQ0 1-655): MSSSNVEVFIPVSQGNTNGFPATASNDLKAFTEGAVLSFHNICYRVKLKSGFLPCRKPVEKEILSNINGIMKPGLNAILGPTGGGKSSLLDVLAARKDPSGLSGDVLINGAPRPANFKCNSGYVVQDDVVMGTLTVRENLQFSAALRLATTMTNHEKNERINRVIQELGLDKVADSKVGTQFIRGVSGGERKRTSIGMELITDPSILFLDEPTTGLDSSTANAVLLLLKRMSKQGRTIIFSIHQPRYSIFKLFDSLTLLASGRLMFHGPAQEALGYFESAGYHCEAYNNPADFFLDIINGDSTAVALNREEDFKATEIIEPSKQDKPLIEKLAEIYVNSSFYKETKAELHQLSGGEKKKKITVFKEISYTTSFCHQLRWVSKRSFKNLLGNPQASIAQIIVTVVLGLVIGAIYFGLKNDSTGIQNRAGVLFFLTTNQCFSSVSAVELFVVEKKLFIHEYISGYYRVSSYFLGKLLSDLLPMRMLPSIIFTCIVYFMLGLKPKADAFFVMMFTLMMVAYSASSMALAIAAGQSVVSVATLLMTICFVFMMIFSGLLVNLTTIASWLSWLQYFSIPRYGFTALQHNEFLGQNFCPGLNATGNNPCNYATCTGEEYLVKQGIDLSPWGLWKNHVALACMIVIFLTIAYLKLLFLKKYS
In words: hoechst 33342 accumulation assay in MDCKII-ABCG2 cells. Format: cell-based. Particulars: read-out: IC50, inhibition of ABCG2 (hoechst 33342 accumulation). The procedure:
as §3

Series [1] can be described thus: MTT proliferation assay, A431-ABCB1. Format: cell-based. Particulars: human, A431-ABCB1 cells, read-out: IC50, sensitivity to ensartinib. The procedure:
as §1
On the technique in general: Tetrazolium dyes change colour on reduction, which living cells bring about.

The values that follow come from publication PMC7226045, “Ensartinib (X-396) Effectively Modulates Pharmacokinetic Resistance Mediated by ABCB1 and ABCG2 Drug Efflux Transporters and CYP3A4 Biotransformation Enzyme” (Cancers, 2020).

A value given as a limit tells only on which side of the number the result lay.

For orientation: IC50 means the point on the concentration scale where inhibition reaches its midpoint.

T1 sequence (P33261 whole entry): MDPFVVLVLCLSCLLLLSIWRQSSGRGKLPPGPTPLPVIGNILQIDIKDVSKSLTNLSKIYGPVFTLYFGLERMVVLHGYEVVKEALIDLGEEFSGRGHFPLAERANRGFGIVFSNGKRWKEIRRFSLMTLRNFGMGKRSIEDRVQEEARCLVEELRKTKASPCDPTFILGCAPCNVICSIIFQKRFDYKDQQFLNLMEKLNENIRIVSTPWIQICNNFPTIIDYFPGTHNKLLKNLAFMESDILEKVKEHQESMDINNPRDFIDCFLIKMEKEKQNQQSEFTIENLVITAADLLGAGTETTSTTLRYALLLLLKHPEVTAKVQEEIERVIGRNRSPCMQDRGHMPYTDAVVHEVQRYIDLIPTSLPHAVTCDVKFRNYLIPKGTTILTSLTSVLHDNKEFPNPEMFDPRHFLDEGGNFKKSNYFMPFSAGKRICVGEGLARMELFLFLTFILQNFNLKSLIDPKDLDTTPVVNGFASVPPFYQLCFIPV
T2 sequence (P33527 whole entry): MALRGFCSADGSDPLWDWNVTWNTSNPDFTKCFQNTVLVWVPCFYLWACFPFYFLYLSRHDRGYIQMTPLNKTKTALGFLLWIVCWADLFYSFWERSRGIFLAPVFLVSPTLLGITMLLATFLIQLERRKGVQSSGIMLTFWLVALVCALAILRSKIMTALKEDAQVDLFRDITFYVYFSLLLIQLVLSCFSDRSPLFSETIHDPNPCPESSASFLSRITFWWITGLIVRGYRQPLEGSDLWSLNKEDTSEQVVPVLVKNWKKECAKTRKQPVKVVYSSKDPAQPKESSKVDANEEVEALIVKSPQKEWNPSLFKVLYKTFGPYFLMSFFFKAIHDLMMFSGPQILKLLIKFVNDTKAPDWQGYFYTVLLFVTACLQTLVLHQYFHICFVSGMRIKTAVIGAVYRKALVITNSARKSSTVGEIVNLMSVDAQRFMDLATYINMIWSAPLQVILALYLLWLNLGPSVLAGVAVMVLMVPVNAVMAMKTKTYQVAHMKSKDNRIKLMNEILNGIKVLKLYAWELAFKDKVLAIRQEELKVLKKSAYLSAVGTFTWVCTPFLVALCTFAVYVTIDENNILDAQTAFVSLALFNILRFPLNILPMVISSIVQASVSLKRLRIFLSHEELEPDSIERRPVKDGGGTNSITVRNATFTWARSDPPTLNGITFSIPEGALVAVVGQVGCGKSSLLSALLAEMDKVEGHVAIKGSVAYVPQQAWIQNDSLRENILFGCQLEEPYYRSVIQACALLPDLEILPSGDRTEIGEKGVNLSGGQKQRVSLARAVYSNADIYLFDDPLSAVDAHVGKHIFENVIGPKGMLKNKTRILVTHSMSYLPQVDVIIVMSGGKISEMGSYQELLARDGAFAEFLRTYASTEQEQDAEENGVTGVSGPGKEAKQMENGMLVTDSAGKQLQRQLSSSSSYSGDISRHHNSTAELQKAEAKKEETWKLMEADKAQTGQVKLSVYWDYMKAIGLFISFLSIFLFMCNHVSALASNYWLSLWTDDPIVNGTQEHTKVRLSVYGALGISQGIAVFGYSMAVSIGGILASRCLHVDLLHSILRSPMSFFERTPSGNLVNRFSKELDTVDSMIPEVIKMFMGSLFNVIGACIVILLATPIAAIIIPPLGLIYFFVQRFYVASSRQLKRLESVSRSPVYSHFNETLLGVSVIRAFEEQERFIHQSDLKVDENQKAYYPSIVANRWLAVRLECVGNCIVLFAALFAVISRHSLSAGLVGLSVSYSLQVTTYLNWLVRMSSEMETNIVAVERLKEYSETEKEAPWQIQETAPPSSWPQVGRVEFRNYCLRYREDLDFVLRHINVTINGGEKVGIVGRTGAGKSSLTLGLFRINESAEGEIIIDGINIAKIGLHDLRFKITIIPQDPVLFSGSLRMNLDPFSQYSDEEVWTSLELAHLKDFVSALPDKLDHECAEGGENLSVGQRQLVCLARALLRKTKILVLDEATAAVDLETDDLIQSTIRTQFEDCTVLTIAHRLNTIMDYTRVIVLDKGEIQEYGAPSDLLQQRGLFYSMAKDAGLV
T3 sequence (P11712 whole entry): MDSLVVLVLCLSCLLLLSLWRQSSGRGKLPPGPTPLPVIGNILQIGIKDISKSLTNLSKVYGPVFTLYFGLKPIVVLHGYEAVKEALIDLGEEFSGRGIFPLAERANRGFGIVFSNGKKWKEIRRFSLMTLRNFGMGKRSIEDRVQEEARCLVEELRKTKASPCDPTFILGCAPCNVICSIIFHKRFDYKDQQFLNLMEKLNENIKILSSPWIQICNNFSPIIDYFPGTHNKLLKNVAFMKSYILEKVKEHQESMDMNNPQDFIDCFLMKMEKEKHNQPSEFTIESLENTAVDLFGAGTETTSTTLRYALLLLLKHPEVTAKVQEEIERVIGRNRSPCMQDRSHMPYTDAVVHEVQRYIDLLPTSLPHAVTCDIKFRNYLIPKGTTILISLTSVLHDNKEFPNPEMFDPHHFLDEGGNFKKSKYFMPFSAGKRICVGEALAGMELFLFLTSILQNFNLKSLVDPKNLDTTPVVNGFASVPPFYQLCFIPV

As to `C[C@@H]1CN(C(=O)c2ccc(NC(=O)c3cc(O[C@H](C)c4c(Cl)ccc(F)c4Cl)c(N)nn3)cc2)C[C@H](C)N1` [ensartinib, Ensartinib], the “docetaxel sensitization in CYP3A4-overexpressing cells” value with HepG2-CYP3A4 cells (25 µM ensartinib (but not 15 µM), 48 h MTT) is listed as “comparable to that induced by ketoconazole”. Moreover, the “sensitization effect of combination with docetaxel” value in the series on HepG2-CYP3A4 cells (HepG2-CYP3A4, <0% antagonism, =0% additivity, >0% synergism) is recorded as “synergistic”. The IC50 is 14.6 µM at CYP2C19, above 50 µM at ABCC1, 4.93 µM on CYP2C9 and 9.13 µM at ABCG2. Further, the IC50 at 48 h in series [1] was 2.79 µM.
